Results published in patent publication US20130336940A1, “MODIFIED PIG ISLETS FOR DIABETES TREATMENT” (UNIVERSITE CATHOLIQUE DE LOUVAIN, priority 2011, published 2013).

Experiments:
pig pancreas = assay: Pancreatic hormonal content for insulin/glucagon (RIA) after STZ; type: in vivo
Description: (§1) Five doses (0, 30, 50, 75, 100 mg/kg) of filter-sterilized Streptozotocin (STZ) (Sigma, Bornem, Belgium) were tested. STZ was solubilised in citrate buffer (25% v/v Na citrate, 23% v/v citric acid, 52% v/v H2O, pH 4.5) and filtered before injection in the external jugular vein (Dufrane, Transplantation, 2006).
For pancreatic hormonal content, insulin and glucagon were first extracted from small biopsies of pancreas taken in the 3 zones (head, body, tail) before being quantified by radio immuno assay (RIA).
For the extraction, ˜1 g of pancreas was cut into small fragments (˜1-2 mm^3) and 5 mL of a solution composed of 75.75% CH3CH2OH, 24.22% H2O, 0.03% HCl were added. The following steps were performed with the samples kept on ice. Samples were mixed (Ultra-Turrax T25 [Janke & Kunkel IKA—Labortechnik, Staufen, Germany]) for 20 seconds 4 times and 5 mL of a solution of 75% CH3CH2OH, 22% H2O, 3% HCl were added to the mixture. The samples were then sonicated 4×20 seconds (Sonifier B 12 [Branson Sonic Power Company, Danbury, Conn., USA]) and centrifugated 10 minutes at 4° C. at 1500 rpm. The first supernatant formed was removed and kept at −20° C. 2 mL of a solution of 75% CH3CH2OH, 23.5% H2O, 1.5% HCl were added to the precipitate and a second step of sonication was performed. The samples were then kept at −20° C. overnight. After a step of centrifugation 10 minutes at 4° C. at 1500 rpm, the second supernatant was removed and kept at −20° C. Thereafter, 2 mL of a solution of 75% CH3CH2OH, 23.5% H2O, 1.5% HCl were added to the precipitate and the mixture was sonicated and centrifuged 10 minutes at 4° C. at 1500 rpm and the third supernatant removed. The three supernatants were then pooled and constituted the pancreas extract. […] The supernatants were immediately removed and the contents of insulin and glucagon were determined by a Wallac Wizard 1470 Automatic gamma counter (GMI Inc, Ramsey, Minn., USA) for 1 minute.

monkeys = settings: cited from earlier work
pig pancreatic islets = assay: Histomorphometry of pancreatic islets prior to isolation (alpha/beta cells) after STZ; type: in vivo
Description: as §1
The cellular composition of islets was determined by immunohistochemistry in small samples of human and pig pancreas taken during dissection of the gland. After overnight fixation in formol at room temperature, the small biopsies were embedded in paraffin and cut in 5 μm sections. These sections were thereafter deparaffinized, rehydrated and washed with a solution of Tris-HCl-Buffered solution 0.05 mol/L (TBS, pH 7.4). After inactivation of endogenous peroxidase by a 30-minute incubation in 0.3% H2O2, the sections were incubated with 10% normal goat serum (NGS) in TBS for 30 minutes. The sections were then incubated overnight at 4° C. with glucagon rabbit polyclonal antibody (BD Bioscience, Erembodegem, Belgium) diluted at 1:100. After washes in TBS, the slides were incubated for 30 minutes with anti-rabbit-IgG (1:500) and these antibodies detected by EnVision anti-rabbit system (Dako A/S, Glostrup, Denmark) for 1 hour at room temperature. […] The glucagon staining was followed by the detection of the β-cells by alkaline phosphatase anti-alkaline phosphatase system (APAAP). After washing, aspecific sites were again inhibited by a 30 minutes incubation with 10% normal goat serum (NGS) in TBS. The slides were thereafter incubated overnight with mouse insulin monoclonal antibody (Abcam, Cambridge, UK) diluted at 1:800.
Islets from human and pig pancreas were compared for cellular proportion and geometric distribution of α and β cells (centre/periphery). Following the islets size, 3 groups of 5 islets (50-99, 100-149 and 150-200 μm) were compared in native/modified young pig versus human pancreas.
The number of small β-cell clusters (≦3 insulin-immunoreactive cells) in the total area of the slide was also assessed. The number of these clusters was manually counted through the entire slide. The area of the slide was measured with ImageJ 1.43i software after capture of pictures of slides with a camera Nikon Coolscan 5000, accessory FH-G1) and calibrated with a stage micrometer to correspond to the number of pixels evidenced on the image analyser.

[1] = STZ 50 mg/kg, by linear regression
[2] = STZ 75 mg/kg, islets of 50-100 μm, prior to isolation

CN(N=O)C(=O)N[C@H]1C(O)O[C@H](CO)[C@@H](O)[C@@H]1O (mixture of isomers) [STZ, Streptozotocin]
theoretical reduction of the pancreatic insulin content (pig pancreas; STZ 30 mg/kg, by linear regression): 30% | pancreatic glucagon content, humans vs treated pigs (pig pancreas; STZ 30/50/75 mg/kg, 3 months post-STZ treatment): higher in humans | pancreatic insulin content (pig pancreas; STZ 75-100 mg/kg): significant reduction | number of α-cells (monkeys; after STZ treatment, monkeys): increased | increase of glucagon mass (monkeys; after long-term diabetes (>53 days), treated primates): ~89% | theoretical increase in the proportion of α cells (pig pancreatic islets; [1]): 30% | theoretical reduction of the proportion of β cells (pig pancreatic islets; [1]): 30% | number of alpha cells per islet in comparison to humans (pig pancreatic islets; [2]): higher number of alpha cells | number of beta cells per islet in comparison to humans (pig pancreatic islets; [2]): lower number of beta cell | number of beta cells per islet in comparison to humans (pig pancreatic islets; STZ 100 mg/kg, islets of 50-100 μm, prior to isolation): lower number of beta cells | number of alpha cells per islet in comparison to humans (pig pancreatic islets; STZ 30-50 mg/kg, islets of 50-100 μm and 150-200 μm, prior to isolation): lower number of alpha cells per islet | alpha cell proportion in comparison to human islets (pig pancreatic islets; STZ 30-50 mg/kg, large islets (150-200 μm), prior to isolation): lower alpha cell proportion | proportion of alpha cells per islet in comparison to humans (pig pancreatic islets; STZ 75-100 mg/kg, each islet size, prior to isolation): higher proportion of alpha cells | beta cell regeneration (from duct or exocrine tissue) (pig pancreatic islets; STZ-treated pig pancreas): No sign of beta cell regeneration | number of α and β cells per islet (pig pancreatic islets; from doses of 30 mg/kg STZ, prior to isolation): increased significantly
